Laboratory results: ChEMBL document CHEMBL1201862, “PubChem BioAssay data set” (2004)
Several values for one entry are separate records, joined by “and”; a condition that tells them apart may be missing. Equal values may be shown once.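 Protocol summary: plate cells (96-well), add compound at 5 concentrations, incubate 48 h, interpolate endpoints linearly. GI50: concentration for 50% inhibition of growth.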 Activity calls are given as the source filed them. Cut-off read from the data, not from the text of the source: active = GI50 up to about 1.1 µM and inactive = higher.

Legend:
Assay in all cases: NCI anticancer screen, dose series, 48 h
COLO 205 = tested on: COLO 205
DU-145 = tested on: DU-145
HCC 2998 = tested on: HCC 2998
HT-29 = tested on: HT-29
KM12 = tested on: KM12
LOX IMVI = tested on: LOX IMVI
MDA-MB-435 = tested on: MDA-MB-435
NCI-H226 = tested on: NCI-H226
OVCAR-5 = tested on: OVCAR-5
RXF 393 = tested on: RXF 393
SF-295 = tested on: SF-295
SF-539 = tested on: SF-539
SK-MEL-5 = tested on: SK-MEL-5
SNB-75 = tested on: SNB-75
SW-620 = tested on: SW-620
T47D = tested on: T47D
TK-10 = tested on: TK-10
U-251 = tested on: U-251
UACC-62 = tested on: UACC-62
OVCAR-4 = tested on: OVCAR-4

SMILES | GI50 (COLO 205) | GI50 (DU-145) | GI50 (HCC 2998) | GI50 (HT-29) | GI50 (KM12) | GI50 (LOX IMVI) | GI50 (MDA-MB-435) | GI50 (NCI-H226) | GI50 (OVCAR-5) | GI50 (RXF 393) | GI50 (SF-295) | GI50 (SF-539) | GI50 (SK-MEL-5) | GI50 (SNB-75) | GI50 (SW-620) | GI50 (T47D) | GI50 (TK-10) | GI50 (U-251) | GI50 (UACC-62) | GI50 (OVCAR-4)
CC#CC(O)(C(=O)OCCCN(C)C)C1CCCCC1 (stereo not drawn) | > 100 µM (inactive) | > 100 µM (inactive) | > 100 µM (inactive) | > 100 µM (inactive) | > 100 µM (inactive) | > 100 µM (inactive) | > 100 µM (inactive) | > 100 µM (inactive) | > 100 µM (inactive) | > 100 µM (inactive) | > 100 µM (inactive) | > 100 µM (inactive) | > 100 µM (inactive) | > 100 µM (inactive) | > 100 µM (inactive) | > 100 µM (inactive) | > 100 µM (inactive) | > 100 µM (inactive) | > 100 µM (inactive) | 
CCOC(=O)c1cnc2oc3ccc(O)cc3c2c1-c1ccccc1 | 28.5 µM (inactive) | > 100 µM (inactive) | > 100 µM (inactive) | 71.6 µM (inactive) |  | 21.6 µM (inactive) | 19.2 µM (inactive) | 32.2 µM (inactive) | > 100 µM (inactive) | 41.1 µM (inactive) | 37.2 µM (inactive) | 17.3 µM (inactive) | 29.2 µM (inactive) |  | > 100 µM (inactive) | > 100 µM (inactive) | > 100 µM (inactive) | 44.8 µM (inactive) | 12.8 µM (inactive) | 24.4 µM (inactive)
COc1ccc(-c2c(C#N)c(N)n(C3OCC(OC(C)=O)C(OC(C)=O)C3OC(C)=O)c(=S)c2C#N)cc1 (stereo not drawn) | 36.1 µM (inactive) and 50.1 µM (inactive) | 64.4 µM (inactive) and 60.1 µM (inactive) | 37.8 µM (inactive) and 26.6 µM (inactive) | 41.2 µM (inactive) and 44.5 µM (inactive) | 53.7 µM (inactive) and 50.1 µM (inactive) | 30 µM (inactive) and 34 µM (inactive) | 25.3 µM (inactive) and 35.7 µM (inactive) | 82.8 µM (inactive) and 77.8 µM (inactive) | 45.7 µM (inactive) and 43.8 µM (inactive) | 19.1 µM (inactive) and 33.6 µM (inactive) | 46.9 µM (inactive) and 71.4 µM (inactive) | 88.9 µM (inactive) and 87.9 µM (inactive) | 34.8 µM (inactive) | 31.8 µM (inactive) and 21 µM (inactive) | > 100 µM (inactive) and 93.5 µM (inactive) | 14.8 µM (inactive) and 26.7 µM (inactive) |  | 32.9 µM (inactive) and 54.5 µM (inactive) | 30.8 µM (inactive) and 40.9 µM (inactive) | 47.3 µM (inactive) and 48.3 µM (inactive)
CCc1n[nH]c(=O)n1NC(=O)/C=C\C(=O)O | > 100 µM (inactive) | > 100 µM (inactive) | > 100 µM (inactive) | > 100 µM (inactive) |  |  | > 100 µM (inactive) | > 100 µM (inactive) | > 100 µM (inactive) | > 100 µM (inactive) | > 100 µM (inactive) | > 100 µM (inactive) | > 100 µM (inactive) | > 100 µM (inactive) |  | > 100 µM (inactive) | > 100 µM (inactive) | > 100 µM (inactive) | > 100 µM (inactive) | > 100 µM (inactive)
C[C@@H]1C[C@@]2(O[C@@H]2C)C(=O)O[C@@H]2CCN3CC=C(COC(=O)[C@]1(C)O)[C@H]23 | > 100 µM (inactive) | > 100 µM (inactive) | > 100 µM (inactive) | > 100 µM (inactive) | > 100 µM (inactive) | > 100 µM (inactive) | > 100 µM (inactive) | > 100 µM (inactive) | > 100 µM (inactive) |  | > 100 µM (inactive) | > 100 µM (inactive) | > 100 µM (inactive) | > 100 µM (inactive) | > 100 µM (inactive) | > 100 µM (inactive) | > 100 µM (inactive) | > 100 µM (inactive) | > 100 µM (inactive) | > 100 µM (inactive)
CC(=O)O[C@H]1C(=O)O[C@@H]2C[C@H]3C(C)=CC(=O)[C@@H](O)[C@]3(C)[C@H]3[C@@]4(O)OC[C@]32[C@@H]1[C@@H](C)[C@H]4O | 0.188 µM (active) | 0.0321 µM (active) | 0.0505 µM (active) | 0.0518 µM (active) | 0.0318 µM (active) | 0.0321 µM (active) | 0.0214 µM (active) |  | 0.348 µM (active) | 0.0301 µM (active) | 0.0535 µM (active) | 0.0246 µM (active) | 0.0247 µM (active) | 0.0366 µM (active) | 0.0527 µM (active) | 0.0228 µM (active) | < 0.0234 µM (active) | 0.0285 µM (active) | 0.0434 µM (active) | 0.0577 µM (active)
COc1cc(COC(=O)N2CSCC2C(=O)O)c([N+](=O)[O-])cc1OC (stereo not drawn) |  | > 100 µM (inactive) | > 100 µM (inactive) | > 100 µM (inactive) | > 100 µM (inactive) |  | > 100 µM (inactive) | > 100 µM (inactive) | > 100 µM (inactive) |  | > 100 µM (inactive) | > 100 µM (inactive) | > 100 µM (inactive) | > 100 µM (inactive) | > 100 µM (inactive) | > 100 µM (inactive) |  | > 100 µM (inactive) | > 100 µM (inactive) | 
Fc1ccc(C(OCCN2CCC3CCC(C2)N3C/C=C/c2ccco2)c2ccc(F)cc2)cc1 (stereo not drawn) | 1.69 µM (inactive) | 15.7 µM (inactive) | 4.94 µM (inactive) |  | 9.1 µM (inactive) | 11.2 µM (inactive) | 10.7 µM (inactive) | 13.2 µM (inactive) |  | 4.4 µM (inactive) | 13 µM (inactive) | 14.1 µM (inactive) | 4.22 µM (inactive) | 15.1 µM (inactive) | 7.96 µM (inactive) | 5.14 µM (inactive) | 6.93 µM (inactive) | 8.59 µM (inactive) | 13.8 µM (inactive) | 10.2 µM (inactive)
CC12O[C@]3([C@H](C(=O)N4CCOC43C)[C@H]1Cl)[C@H]1O[C@H]12 (stereo partly drawn) | 24.6 µM (inactive) | > 100 µM (inactive) | > 100 µM (inactive) | > 100 µM (inactive) | > 100 µM (inactive) | > 100 µM (inactive) | > 100 µM (inactive) | > 100 µM (inactive) | > 100 µM (inactive) |  | > 100 µM (inactive) | > 100 µM (inactive) | > 100 µM (inactive) | > 100 µM (inactive) | > 100 µM (inactive) | > 100 µM (inactive) | > 100 µM (inactive) | > 100 µM (inactive) | > 100 µM (inactive) | > 100 µM (inactive)
CSc1scc2c1/C(=N/NC(N)=O)CCC2 | > 100 µM (inactive) | 45.2 µM (inactive) | > 100 µM (inactive) | > 100 µM (inactive) | 86.1 µM (inactive) | > 100 µM (inactive) | 52.8 µM (inactive) | 22.4 µM (inactive) | > 100 µM (inactive) |  | 60.5 µM (inactive) | > 100 µM (inactive) | 41.1 µM (inactive) | 36.7 µM (inactive) | > 100 µM (inactive) | > 100 µM (inactive) | > 100 µM (inactive) | > 100 µM (inactive) | > 100 µM (inactive) | > 100 µM (inactive)
CCCCOC(=O)c1cc(C(=CCC[C@H]2CC[C@@]3(C)[C@@H](CC[C@@H]4[C@@H]3CC[C@]3(C)[C@@H](C(C)CCCC(C)C)CC[C@@H]43)C2)c2cc(Cl)c(O)c(C(=O)OCCCC)c2)cc(Cl)c1O (stereo partly drawn) | > 50 µM (inactive) | > 50 µM (inactive) | > 50 µM (inactive) | > 50 µM (inactive) | > 50 µM (inactive) | > 50 µM (inactive) | > 50 µM (inactive) | > 50 µM (inactive) |  |  |  |  | > 50 µM (inactive) | > 50 µM (inactive) | > 50 µM (inactive) | > 50 µM (inactive) |  | > 50 µM (inactive) | > 50 µM (inactive) | > 50 µM (inactive)
C=C(c1ccccc1)C1ON(C)CCc2cc(OC)c(OC)cc21 (stereo not drawn) | > 100 µM (inactive) | > 100 µM (inactive) | > 100 µM (inactive) | 75.3 µM (inactive) | > 100 µM (inactive) | 26.2 µM (inactive) | 84.9 µM (inactive) | > 100 µM (inactive) | > 100 µM (inactive) | > 100 µM (inactive) | 58.9 µM (inactive) | > 100 µM (inactive) | 23.3 µM (inactive) | > 100 µM (inactive) | > 100 µM (inactive) | 37 µM (inactive) | > 100 µM (inactive) | > 100 µM (inactive) | > 100 µM (inactive) | 
O=C(O)CCO/N=C1/C(=C2/C(=O)Nc3ccccc32)Nc2ccccc21 | 18.2 µM (inactive) | 17.2 µM (inactive) | 15.3 µM (inactive) | 25 µM (inactive) | 1.16 µM (inactive) | 12.4 µM (inactive) | 29.6 µM (inactive) |  | 40.9 µM (inactive) | 3.61 µM (inactive) | 35.1 µM (inactive) | 38.3 µM (inactive) | 13.4 µM (inactive) | 13.8 µM (inactive) | 29.7 µM (inactive) | 13.3 µM (inactive) | 32.4 µM (inactive) | 30.3 µM (inactive) | 14.7 µM (inactive) | 26.2 µM (inactive)
O=C1Nc2cccc(Cl)c2/C1=C\c1c(-c2ccccc2)nc2n1CCS2 | 18.8 µM (inactive) | 19.8 µM (inactive) | 21.3 µM (inactive) | 20.3 µM (inactive) | 20.8 µM (inactive) | 16 µM (inactive) | 18.2 µM (inactive) |  | 22.8 µM (inactive) | 19.6 µM (inactive) | 28.7 µM (inactive) | 17.1 µM (inactive) | 19.5 µM (inactive) | 24 µM (inactive) | 14.9 µM (inactive) | 17.5 µM (inactive) | 13.2 µM (inactive) | 19.6 µM (inactive) | 17.9 µM (inactive) | 
